Measured values reported in patent US7402580B2, “Fused pyridazine derivative compounds and drugs containing these compounds as the active ingredient” (Ono Pharmaceutical Co., Ltd., priority 2002, dated 2008).
pIC50: −log10 of the molar value.

Molecular target: T1, PARP (TREVIGEN) (Homo sapiens, UniProt P09874)
T1 construct: purchased TREVIGEN
Experiment: Enzyme assay in vitro (PARP inhibitory activity, 3H-NAD incorporation)
Format: biochemical
Conditions: 50% inhibitory concentration, control (distilled water) = 100%; reaction 10 minutes at room temperature
Description: The below procedure was carried out with 96 well plate at room temperature. In a final volume of […], the reaction mixture contained each 10 μL of 500 mM Tris/HCl (pH 8.0, WAKO), 100 mM MgCl2, 50 mM dithiothreitol (sigma), 1 mg/mL activated DNA and 1 mM NAD (containing ^3H-NAD). The 10 μL of test compound was added to the reaction mixture and the reaction was started by addition of 10 μL of 0.1 U/μL PARP (TREVIGEN). The reaction was terminated at 10 minutes by addition of 100 μL of 20% trichloroacetic acid. Poly(ADP-ribose), which is the reaction product, was collected on a glass fiber filter (GF/C, PACKARD). The radioactivity was measured by topcount (PACKARD). Inhibitory activity of the compound was represented by 50% inhibitory concentration calculated as 100% of control (distilled water).

T1 sequence (P09874 whole entry): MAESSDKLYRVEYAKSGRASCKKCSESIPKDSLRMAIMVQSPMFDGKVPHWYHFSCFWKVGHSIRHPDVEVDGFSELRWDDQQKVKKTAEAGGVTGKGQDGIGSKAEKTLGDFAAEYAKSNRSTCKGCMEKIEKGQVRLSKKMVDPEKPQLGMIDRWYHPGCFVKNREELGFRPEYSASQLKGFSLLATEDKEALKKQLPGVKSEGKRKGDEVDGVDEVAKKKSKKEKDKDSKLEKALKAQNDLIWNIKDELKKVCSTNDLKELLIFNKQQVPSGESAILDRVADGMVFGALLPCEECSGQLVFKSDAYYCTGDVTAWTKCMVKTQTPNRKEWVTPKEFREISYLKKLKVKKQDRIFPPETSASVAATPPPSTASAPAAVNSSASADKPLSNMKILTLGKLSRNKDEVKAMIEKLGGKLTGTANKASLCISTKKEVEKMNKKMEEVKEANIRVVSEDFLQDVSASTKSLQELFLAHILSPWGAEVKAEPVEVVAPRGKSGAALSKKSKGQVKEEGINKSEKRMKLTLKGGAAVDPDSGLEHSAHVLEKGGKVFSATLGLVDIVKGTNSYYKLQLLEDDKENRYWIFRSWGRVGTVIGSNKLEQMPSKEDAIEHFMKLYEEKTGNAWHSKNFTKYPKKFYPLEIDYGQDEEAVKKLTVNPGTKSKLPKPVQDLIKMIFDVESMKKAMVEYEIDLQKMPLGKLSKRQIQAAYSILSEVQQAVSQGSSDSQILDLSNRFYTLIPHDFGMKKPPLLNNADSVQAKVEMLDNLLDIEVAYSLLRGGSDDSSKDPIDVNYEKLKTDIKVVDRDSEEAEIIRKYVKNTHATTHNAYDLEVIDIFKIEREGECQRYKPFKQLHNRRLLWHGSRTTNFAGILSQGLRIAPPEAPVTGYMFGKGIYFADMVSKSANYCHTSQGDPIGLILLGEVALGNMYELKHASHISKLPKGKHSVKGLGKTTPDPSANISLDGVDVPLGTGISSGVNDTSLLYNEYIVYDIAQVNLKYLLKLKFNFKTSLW

Compound: NCCNC(=O)Cc1n[nH]c(=O)c2c1CCCC2 [30(4), 4-(N-(2-aminoethyl)carbamoylmethyl)-5,6,7,8-tetrahydrophthalazin-1(2H)-one]
- pIC50: 6.54

Compound: Nc1cccc(-c2n[nH]c(=O)c3c2NCCC3)c1 [11(4), 8-(3-aminophenyl)-2,3,4,6-tetrahydropyrido[2,3-d]pyridazin-5(1H)-one]
- pIC50: 7.00

Compound: Nc1cc(N)cc(C2=NNC(=O)C3CSCCN23)c1 (stereo not drawn) [6(9), 4-(3,5-diaminophenyl)-6,7,9,9a-tetrahydro[1,4]thiazino[4,3-d][1,2,4]triazin-1(2H)-one]
- pIC50: 6.21
